Earlier results on three molecules are cited in paper PMC10643470, “Knockout or inhibition of USP30 protects dopaminergic neurons in a Parkinson’s disease mouse model” (Nature Communications, 2023).

Molecules are shown by their SMILES.

Series [1] has as its system SHSY5Y neuroblastoma cells. Further details: method as in PMID 32636217. The conditions noted are these: SHSY5Y neuroblastoma cells ref 42; cited from earlier work.
Series [2] concerns SHSY5Y neuroblastoma cells. Further details: method as in PMID 32636217. The conditions noted are these: SHSY5Y neuroblastoma cells ref 42; cited from earlier work. The source holds these as a separate data set.
The test system of another series is USP30. The conditions noted are these: cited from earlier work.

On to `N#CN1CC[C@@H](NC(=O)c2cc(-c3ccccc3Oc3ccccc3)n[nH]2)C1` [FT3967385], for which, in series [1], the “Ubiquitylation of TOM20” value is “significantly increases”. Further, the Mitophagy levels entry in series [2] is “significantly increases”.

Turning to `CC(C)(C)NS(=O)(=O)c1cccc2c(NC(=O)[C@H](Cc3ccccc3)NC(=O)C3CCCCC3)cccc12` [MF-094], in the series on USP30, the “USP30 inhibition in biochemical assays” value is “identified as USP30 inhibitors”.

Take `CC(C)(C)NS(=O)(=O)c1cccc2c(NC(=O)[C@H](Cc3ccccc3)NC(=O)C3CC3)cccc12` [MF-095]: the “USP30 inhibition in biochemical assays” value in the series on USP30 is reported as “identified as USP30 inhibitors”.
